Laboratory results from patent US10548854B2, “Manufacture of nonelectronic, active-infusion patch and device for transdermal delivery across skin” (The Hong Kong University of Science and Technology, priority 2012, dated 2020).

What was measured:
[1] = tested on: blood glucose level; conditions: micro-needles and pressure force (10 psi); cited from earlier work
[2] = In-vitro transdermal delivery across porcine ear skin in vertical diffusion cell (active infusion microneedle patch)
Text: (§1) Porcine ears were freshly obtained from a local slaughter facility, gently washed with running tap water, and chopped into pieces of 50 mm in width. Visual observation was done to check if the skins were free from lesions and infections. Hairs at the back of the ear were carefully removed by clipper. Full thickness skins were obtained using manual-operated dermatome with uniform insertion force and angle. The split skins were cut into discs with 40 mm diameter. The skins were then sprayed and rubbed with 75% ethanol for 1 mm to remove fatty tissues and dirt, followed by DI water washing. Thereafter the skins were blotted with a cellulose-based fiber tissue, such as […] ™, wrapped with aluminum foil, and stored in a −20° C. refrigerator until further use. All prepared porcine skin was used within 2 weeks.
(§2) Vertical diffusion cell was filled with 7 mL phosphate buffered saline (PBS) (137 mM sodium chloride (NaCl), 2.7 mM potassium chloride (KCl), 4.3 mM sodium phosphate dibasic heptahydrate (NaH2PO4.7H2O), and 1.6 mM potassium phosphate monobasic (KH2PO4), pH 7.4) and pre-run at 300 rpm with bath circulator for 1 hr to achieve 37° C. Porcine skin was thawed by soaking in PBS at room temperature for 1 hr. After that, the porcine skin was mounted between the receptor and the donor cell of the diffusion system. The stratum corneum of the skin faced the donor cell while the dermis side faced the receptor cell. The skin was handled with care to avoid bubble accumulation on the receptor side of the skin. Diclofenac sodium (DFS) or insulin (70 μL) and DI water (500 μL) were loaded into the drug and water reservoirs, respectively, through the resealable injector ports. A patch, such as those described in previous examples, was gently shaken to ensure water could make contact with the dried hydrogel inside. The patch was applied on the donor side of the skin by finger force, with the help of adhesive tapes to keep the patch in position. Samples (1 mL) were withdrawn from the receptor cell every hour with immediate replenishment of the same volume of fresh PBS. The tests were done with patches bonded with commercial (ME-C-600), zeolite (SSM-O-150), or plastic (P-O-500) microneedles.
(§3) Quantification of DFS in samples was done by analysis under ultra-performance liquid chromatography (UPLC). With a gradient method A:B=70%:30% to 10%: 90% in 4 min (A=0.02% trifluoroacetic acid (TFA) in H2O; B=0.02% TFA in acetonitrile (ACN)), flow rate=0.45 mL/min with detection wavelength=210 nm. […] Negative control is achieved by direct pipetting of a known amount of drug on skin for diffusion.
(§4) A plastic microneedle plate was used in this experiment.

[3] = insulin administration by the transdermal patch, compared with other groups
Experimental: An in vivo test of insulin delivery was conducted on Sprague Dawley rats weighing between approximately 230 g-250 g, which were fasting overnight, but free to access water one day before the test. The rats were anesthetized by a ketamine/xylazine cocktail, and the abdominal hairs were completely removed by a hair clipper followed by chemical depilatory creams. About 80 μl of 100 IU/ml human insulin solution was transdermal administrated to individual rats by either zeolite microneedles or the same type of commercial microneedles used in Example 12. Fixed dosed 0.1 IU insulin solution or saline was also subcutaneously injected by syringes to simulate the positive and negative control respectively. The rats' blood glucose levels were recorded by a portable glucose meter (Roche, Accu-Chek Performa Nano) for 6 hours at different time intervals. For the first 4 hours 200 μl of blood samples were also collected by squeezing the rats' tails. The blood samples were centrifuge at 13000 G for 3 min and then the blood plasma was pipetted into 1.5 ml centrifuge tubes and stored under −80° C. for blood insulin test. The blood insulin levels were tested by an ELISA kit (Mercodia, Human Insulin ELISA). […]
In pharmacokinetics, the administration efficiency of a certain drug is commonly evaluated by its Cmax and Tmax. […]

[4] = tested on: blood glucose level; experiment: In-vivo insulin delivery, blood glucose level; set-up: species or system Sprague Dawley rats; conditions: after 1 hour
Experimental: For all zeolite microneedle, commercial microneedle, and the positive control, a significant pharmaceutical effect could be observed after 1 hour, when the blood glucose level of the rats dropped by about 4-fold from the original level and was subsequently maintained for some hours.

[5] = pig, 8 h, pH 7.4
Text: as §1, §2, §3, §4

[6] = In-vivo DFS delivery across skin by microneedle plates; set-up: species or system Sprague Dawley rats; conditions: 200 μl of 5 mg/ml DFS bolus, skin sampled after 5 min
Experimental: A in-vivo test was conducted on Sprague Dawley rates between approximately 230 g-250 g to analyze DFS delivery. […] 200 μl of 5 mg/ml DFS in phosphate buffered saline (PBS) was injected through rats' naked skin with either zeolite microneedles or commercial microneedles in bolus. A negative control consisted of placing excess DFS solution on rats' naked skin. After 5 min, the skins were washed by iced DI water. About 1 mm diameter of skin samples at the injection sites were carefully cut and then weighed in 2 ml centrifuge tubes. Then the skin samples were homogenized in 5 fold PBS buffer by sonication. DFS was extracted from the homogenate by liquid-phase extraction using 500 μl ethyl-acetate for twice. The ethyl-acetate was collected into 1.5 ml centrifuge tubes and then removed under vacuum. The residues were reconstituted by 500 μl ACN:H2O (50:50 w/w ratio) and 200 μl of the reconstituted solution was send for UPLC analysis.

Compound | lowering of normalized blood glucose level [1] [%] | insulin delivery rate profile ([2]; active infusion patch with zeolite and commercial microneedles) | insulin permeated across skin ([2]; non-porated pig skin, skin patch test (negative control), 70 μL of 4.5 mg/mL insulin) | Cmax (blood insulin level) [3] | Tmax (blood insulin level) [3] | drop of blood glucose level from the original level ([4]; commercial microneedle, about 80 μl of 100 IU/ml human insulin) | drop of blood glucose level from the original level ([4]; positive control: 0.1 IU insulin subcutaneously injected by syringe) | drop of blood glucose level from the original level ([4]; zeolite microneedle, about 80 μl of 100 IU/ml human insulin) | Percentage of DFS delivered [5] [%] | Total amount of drug delivered [5] [%] | DFS delivery rate ([2]; zeolite microneedle plate adhered to the patch, versus negative control) | increase of transdermal DFS delivery compared with the negative control ([6]; commercial microneedle) [times] | increase in delivery amount compared with the commercial microneedle ([6]; zeolite microneedle)
insulin | 70 | linear insulin delivery rate | less than 5% | highest | fastest | about 4 fold | about 4 fold | about 4 fold |  |  |  |  | 
O=C(O)Cc1ccccc1Nc1c(Cl)cccc1Cl [DFS, Diclofenac sodium] |  |  |  |  |  |  |  |  | 17.6±3.2 | 60.9±6.1 | improves delivery rates | ~5 | more than 3 fold
